# In patent US9695155B2, “Herbicidal substituted pyrimidinyloxy benzene compounds” (E. I. DU PONT DE NEMOURS AND COMPANY, priority 2013, dated 2017):
# Tests used:
# barnyardgrass [1] = assay: Test C preemergence; format: in vivo, Echinochloa crus-galli; details: for Barnyardgrass plant response rating: preemergence; for Plant response rating, Barnyardgrass: Preemergence, scale 0 to 100, 0 no effect, 100 complete control
# In short: (§1)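 Preemergence: seeds sown in a loam soil–sand blend and sprayed with test chemical in a non-phytotoxic solvent mixture containing surfactant. Postemergence: plants at 2 to 18 cm (1- to 4-leaf stage) in peat-based medium, treated with the same formulation. Greenhouse 13 to 15 days, then visual rating 0 (no effect) to 100 (complete control).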
# morningglory [2] = assay: Test A preemergence; format: in vivo, Ipomoea spp.; details: for Morningglory plant response rating: 500 g ai/ha
# In short: (§2)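 Pre- and postemergence greenhouse screen. Soil: loam + sand. Spray carrier: solvent mixture, non-phytotoxic, with surfactant. Post timing at 1–2 leaves, height 2–10 cm. Readout: visual injury on a 0–100 scale roughly 10 days after application, untreated plants as reference.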
# pigweed [3] = assay: Test A postemergence; format: in vivo, Amaranthus retroflexus; details: 0 to 100 scale where 0 is no effect and 100 is complete control; for Plant response rating, Pigweed: 500 g ai/ha; for Pigweed plant response rating: 125 g ai/ha
# In short: as §2
# giant foxtail = assay: Test A preemergence; format: in vivo, Setaria faberii; details: for Foxtail, Giant plant response rating: 500 g ai/ha
# In short: as §2
# wheat = assay: Test A postemergence; format: in vivo, Triticum aestivum; details: 0 to 100 scale where 0 is no effect and 100 is complete control; for Plant response rating, Wheat: 500 g ai/ha; for Wheat plant response rating: 125 g ai/ha
# In short: as §2
# wheat, winter = assay: Test C preemergence; format: in vivo, Triticum aestivum; details: for Wheat plant response rating: preemergence; for Plant response rating, Wheat: Preemergence, scale 0 to 100, 0 no effect, 100 complete control
# In short: as §1
# large (Lg) crabgrass = assay: Test A postemergence; format: in vivo, Digitaria sanguinalis; details: 0 to 100 scale where 0 is no effect and 100 is complete control
# In short: as §2
# morningglory [4] = assay: Test C postemergence; format: in vivo, Ipomoea coccinea; details: for Plant response rating, Morningglory / Morningglory plant response rating: scale 0 to 100 (0 no effect, 100 complete control); for Morningglory plant response rating: 31 g ai/ha
# In short: as §1
# Italian ryegrass = assay: Test C postemergence; format: in vivo, Lolium multiflorum; details: for Plant response rating, Ryegrass, Italian / Ryegrass, Italian plant response rating: scale 0 to 100 (0 no effect, 100 complete control); for Ryegrass, Italian plant response rating: 31 g ai/ha
# In short: as §1
# barnyardgrass [5] = assay: Test B flooded paddy test; format: in vivo, Echinochloa crus-galli; details: Flood, 250 g ai/ha; 0 to 100 scale where 0 is no effect and 100 is complete control
# In short: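 Plants were grown to the 2-leaf stage, then pots were flooded to 3 cm above the soil and compounds were applied directly into the paddy water. That depth was held throughout, and after 13 to 15 days in the greenhouse injury was rated visually against controls on a 0–100 scale (0 no effect, 100 complete control).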
# kochia = assay: Test C postemergence; format: in vivo, Kochia scoparia; details: for Kochia plant response rating / Plant response rating, Kochia: scale 0 to 100 (0 no effect, 100 complete control)
# In short: as §1
# corn = assay: Test A preemergence; format: in vivo, Zea mays; details: for Corn plant response rating: 500 g ai/ha
# In short: as §2
# velvetleaf [6] = assay: Test A preemergence; format: in vivo, Abutilon theophrasti; details: for Velvetleaf plant response rating: 500 g ai/ha
# In short: as §2
# lambsquarters = assay: Test C preemergence; format: in vivo, Chenopodium album; details: for Lambsquarters plant response rating: preemergence; for Plant response rating, Lambsquarters: Preemergence, scale 0 to 100, 0 no effect, 100 complete control
# In short: as §1
# velvetleaf [7] = assay: Test A postemergence; format: in vivo, Abutilon theophrasti; details: 0 to 100 scale where 0 is no effect and 100 is complete control; for Plant response rating, Velvetleaf: 500 g ai/ha; for Velvetleaf plant response rating: 125 g ai/ha
# In short: as §2
# pigweed [8] = assay: Test C postemergence; format: in vivo, Amaranthus retroflexus; details: for Plant response rating, Pigweed / Pigweed plant response rating: scale 0 to 100 (0 no effect, 100 complete control); for Pigweed plant response rating: 31 g ai/ha
# In short: as §1
# [9] = 16 g ai/ha, scale 0 to 100 (0 no effect, 100 complete control)
# [10] = 62 g ai/ha, scale 0 (no effect) to 100 (complete control)
# [11] = 125 g ai/ha, scale 0 (no effect) to 100 (complete control)
# [12] = 125 g ai/ha, 0 to 100 scale where 0 is no effect and 100 is complete control
# [13] = 0 to 100 scale, 0 no effect, 100 complete control, approx. 10 days
# [14] = 125 g ai/ha, postemergence, visual rating
# [15] = 250 g ai/ha, scale 0 (no effect) to 100 (complete control)
# [16] = 0 to 100 scale where 0 is no effect and 100 is complete control
# [17] = postemergence, visual rating, 13 to 15 days
# [18] = Postemergence, 62 g ai/ha, 13 to 15 days
# [19] = 31 g ai/ha, postemergence, visual rating, 13 to 15 days
# [20] = 16 g ai/ha, postemergence, 0 is no effect, 100 is complete control
structure (smiles),measurement,setting,value
N#Cc1cnn(-c2c(C#N)cccc2Oc2ncc(F)cn2)c1 [Compound 111],Barnyardgrass plant response rating,barnyardgrass [1]; [9],5
same,Barnyardgrass plant response rating,barnyardgrass [1]; [10],90
same,Barnyardgrass plant response rating,barnyardgrass [1]; [11],100
same,"Plant response rating, Barnyardgrass",barnyardgrass [1]; 31 g ai/ha,55
same,"Plant response rating, Morningglory",morningglory [2]; [12],90
same,Morningglory plant response rating,morningglory [2]; [13],100
same,"Plant response rating, Pigweed",pigweed [3],100
same,"Plant response rating, Foxtail, Giant",giant foxtail; [12],100
same,"Foxtail, Giant plant response rating",giant foxtail; [13],100
same,"Plant response rating, Wheat",wheat,80
same,Wheat plant response rating,"wheat, winter; [9]",0
same,Wheat plant response rating,"wheat, winter; [10]",0
same,Wheat plant response rating,"wheat, winter; [11]",20
same,"Plant response rating, Wheat","wheat, winter; 31 g ai/ha",30
same,"Plant response rating, Crabgrass, Large",large (Lg) crabgrass; 125 g ai/ha,60
same,"Plant response rating, Crabgrass, Large",large (Lg) crabgrass; 500 g ai/ha,90
same,"Plant response rating, Morningglory",morningglory [4]; [14],98
same,"Plant response rating, Morningglory","morningglory [4]; Postemergence, 62 g ai/ha",80
same,"Plant response rating, Ryegrass, Italian",Italian ryegrass; [14],0
same,"Plant response rating, Ryegrass, Italian","Italian ryegrass; Postemergence, 62 g ai/ha",0
same,"Plant response rating, Barnyardgrass",barnyardgrass [5],0
same,Kochia plant response rating,"kochia; 16 g ai/ha, postemergence, visual rating, 13 to 15 days",60
same,"Plant response rating, Kochia",kochia; [14],95
same,"Plant response rating, Kochia","kochia; Postemergence, 62 g ai/ha",90
same,"Plant response rating, Corn",corn; [12],20
same,Corn plant response rating,corn; [13],50
same,"Plant response rating, Velvetleaf",velvetleaf [6]; [12],70
same,Lambsquarters plant response rating,lambsquarters; [9],50
same,Lambsquarters plant response rating,lambsquarters; [10],100
same,Lambsquarters plant response rating,lambsquarters; [11],100
same,"Plant response rating, Lambsquarters",lambsquarters; 31 g ai/ha,100
same,"Plant response rating, Velvetleaf",velvetleaf [7],100
same,"Plant response rating, Pigweed",pigweed [8]; [14],85
same,"Plant response rating, Pigweed","pigweed [8]; Postemergence, 62 g ai/ha",85
N#Cc1cccc(Oc2ncc(Cl)cn2)c1-n1cc(I)cn1 [Compound 204],Barnyardgrass plant response rating,barnyardgrass [1]; [11],100
same,Barnyardgrass plant response rating,barnyardgrass [1]; [15],100
same,"Plant response rating, Barnyardgrass",barnyardgrass [1]; 62 g ai/ha,95
same,Morningglory plant response rating (0 to 100 scale),morningglory [2]; 125 g ai/ha,90
same,Morningglory plant response rating,morningglory [2]; [16],90
same,Pigweed plant response rating,pigweed [3],100
same,"Plant response rating, Pigweed",pigweed [3],100
same,"Foxtail, Giant plant response rating (0 to 100 scale)",giant foxtail; 125 g ai/ha,100
same,"Foxtail, Giant plant response rating",giant foxtail; [16],100
same,Wheat plant response rating,wheat,40
same,"Plant response rating, Wheat",wheat,70
same,Wheat plant response rating,"wheat, winter; [11]",30
same,Wheat plant response rating,"wheat, winter; [15]",60
same,"Plant response rating, Wheat","wheat, winter; 62 g ai/ha",5
same,"Crabgrass, Large plant response rating",large (Lg) crabgrass; 125 g ai/ha,90
same,"Plant response rating, Crabgrass, Large",large (Lg) crabgrass; 500 g ai/ha,100
same,Morningglory plant response rating,morningglory [4]; [17],60
same,"Plant response rating, Morningglory",morningglory [4]; [14],98
same,"Plant response rating (0 to 100), Morningglory","morningglory [4]; 250 g ai/ha, postemergence",95
same,"Plant response rating, Morningglory",morningglory [4]; [18],65
same,"Ryegrass, Italian plant response rating",Italian ryegrass; [17],5
same,"Plant response rating, Ryegrass, Italian",Italian ryegrass; [14],10
same,"Plant response rating (0 to 100), Ryegrass, Italian","Italian ryegrass; 250 g ai/ha, postemergence",10
same,"Plant response rating, Ryegrass, Italian",Italian ryegrass; [18],5
same,"Plant response rating, Barnyardgrass",barnyardgrass [5],20
same,Kochia plant response rating,kochia; [19],90
same,"Plant response rating, Kochia",kochia; [14],100
same,"Plant response rating (0 to 100), Kochia","kochia; 250 g ai/ha, postemergence",100
same,"Plant response rating, Kochia",kochia; [18],100
same,Corn plant response rating (0 to 100 scale),corn; 125 g ai/ha,0
same,Corn plant response rating,corn; [16],30
same,Velvetleaf plant response rating (0 to 100 scale),velvetleaf [6]; 125 g ai/ha,80
same,Velvetleaf plant response rating,velvetleaf [6]; [16],100
same,Lambsquarters plant response rating,lambsquarters; [11],95
same,Lambsquarters plant response rating,lambsquarters; [15],98
same,"Plant response rating, Lambsquarters",lambsquarters; 62 g ai/ha,98
same,Velvetleaf plant response rating,velvetleaf [7],100
same,"Plant response rating, Velvetleaf",velvetleaf [7],100
same,Pigweed plant response rating,pigweed [8]; [17],80
same,"Plant response rating, Pigweed",pigweed [8]; [14],95
same,"Plant response rating (0 to 100), Pigweed","pigweed [8]; 250 g ai/ha, postemergence",98
same,"Plant response rating, Pigweed",pigweed [8]; [18],95
FC(F)(F)c1cnn(-c2c(Cl)cccc2Oc2ncc(Cl)cn2)c1 [Compound 167],Barnyardgrass plant response rating,barnyardgrass [1]; [9],5
same,Barnyardgrass plant response rating,barnyardgrass [1]; [10],100
same,Barnyardgrass plant response rating,barnyardgrass [1]; [11],100
same,"Plant response rating, Barnyardgrass",barnyardgrass [1]; 31 g ai/ha,85
same,Morningglory plant response rating (0 to 100 scale),morningglory [2]; 125 g ai/ha,90
same,Morningglory plant response rating,morningglory [2]; [16],100
same,Pigweed plant response rating,pigweed [3],100
same,"Plant response rating, Pigweed",pigweed [3],100
same,"Plant response rating, Foxtail, Giant",giant foxtail; [12],100
same,"Foxtail, Giant plant response rating",giant foxtail; [16],100
same,Wheat plant response rating,wheat,20
same,"Plant response rating, Wheat",wheat,60
same,Wheat plant response rating,"wheat, winter; [9]",0
same,Wheat plant response rating,"wheat, winter; [10]",5
same,Wheat plant response rating,"wheat, winter; [11]",50
same,"Crabgrass, Large plant response rating",large (Lg) crabgrass; 125 g ai/ha,80
same,"Plant response rating, Crabgrass, Large",large (Lg) crabgrass; 500 g ai/ha,90
same,"Plant response rating (0 to 100), Morningglory",morningglory [4]; [20],80
same,Morningglory plant response rating,morningglory [4]; [17],60
same,"Plant response rating, Morningglory",morningglory [4]; [14],90
same,"Plant response rating, Morningglory","morningglory [4]; Postemergence, 62 g ai/ha",98
same,"Plant response rating (0 to 100), Ryegrass, Italian",Italian ryegrass; [20],0
same,"Ryegrass, Italian plant response rating",Italian ryegrass; [17],10
same,"Plant response rating, Ryegrass, Italian",Italian ryegrass; [14],30
same,"Plant response rating, Ryegrass, Italian","Italian ryegrass; Postemergence, 62 g ai/ha",5
same,"Plant response rating, Barnyardgrass",barnyardgrass [5],35
same,"Plant response rating (0 to 100), Kochia",kochia; [20],90
same,Kochia plant response rating,kochia; [19],90
same,"Plant response rating, Kochia",kochia; [14],95
same,"Plant response rating, Kochia","kochia; Postemergence, 62 g ai/ha",90
same,"Plant response rating, Corn",corn; [12],10
same,Corn plant response rating,corn; [16],40
same,Velvetleaf plant response rating (0 to 100 scale),velvetleaf [6]; 125 g ai/ha,80
same,Velvetleaf plant response rating,velvetleaf [6]; [16],100
same,Lambsquarters plant response rating,lambsquarters; [9],75
same,Lambsquarters plant response rating,lambsquarters; [10],100
same,Lambsquarters plant response rating,lambsquarters; [11],100
same,Velvetleaf plant response rating,velvetleaf [7],100
same,"Plant response rating, Velvetleaf",velvetleaf [7],100
same,"Plant response rating (0 to 100), Pigweed",pigweed [8]; [20],80
same,Pigweed plant response rating,pigweed [8]; [17],90
same,"Plant response rating, Pigweed",pigweed [8]; [14],98
same,"Plant response rating, Pigweed","pigweed [8]; Postemergence, 62 g ai/ha",95
